Measured values published in patent US5574012A, “Analogs of hirudin having anti-platelet activity” (Merrell Pharmaceuticals Inc., priority 1995, dated 1996).

Legend:
platelets = test: Dog antiplatelet IC50; assay type: cell-based
thrombin = thrombin (Bos taurus, UniProt P00735); test: biochemical; details: bovine; read-out: Bovine Antithrombin IC50

Row | IC50 (platelets) [µM] | Compound | IC50 (thrombin) [µM]
1 | 250 | CC[C@H](C)[C@H](NC(=O)[C@@H]1CCCN1C(=O)[C@H](CCC(=O)O)NC(=O)[C@H](Cc1c[nH]c2ccccc12)NC(=O)[C@H](CC(=O)O)NC(=O)CNC(=O)CCCCN)C(=O)N1CCC[C@H]1C(=O)N[C@@H](CCC(=O)O)C(=O)N[C@@H](CCC(=O)O)C(=O)N[C@@H](C)C(=O)N[C@@H](CC1CCCCC1)C(=O)N[C@H](CCC(=O)O)C(=O)O [Example 2] | –
2 | – | CC[C@H](C)[C@H](NC(=O)[C@@H]1CCCN1C(=O)[C@H](CCC(=O)O)NC(=O)[C@H](Cc1c[nH]c2ccccc12)NC(=O)[C@H](CC(=O)O)NC(=O)CNC(=O)[C@@H](N)CCCNC(=N)N)C(=O)N1CCC[C@H]1C(=O)N[C@@H](CCC(=O)O)C(=O)N[C@@H](CCC(=O)O)C(=O)N[C@@H](C)C(=O)N[C@@H](CC1CCCCC1)C(=O)N[C@H](CCC(=O)O)C(=O)O [Example 3] | 2.8
